Assay results from patent US20020010132A1, “COMPOSITIONS OF MURAMYL PEPTIDES INHIBITING THE REPLICATION OF HIV” (VACSYN S.A., priority 1994, published 2002).

Tests used:
[1] = tested on: HIV; conditions: cited from earlier work
[2] = tested on: macrophages in culture; test: Proliferation of cultured macrophages (3H-thymidine incorporation); type: cell-based, human; conditions: for inhibition of proliferation of macrophages stimulated with the combination IL-3/GM-CSF / inhibition of proliferation of macrophages stimulated with IL-3: 1 μg/ml; for inhibition of proliferation of macrophages stimulated with the combination IL-3/GM-CSF: hr IL-3 and hr GM-CSF stimulated; for inhibition of proliferation of macrophages stimulated with IL-3: hr IL-3 stimulated, compound added a day before 3H-thymidine; for inhibition of spontaneous proliferation: without stimulation
Experimental: For that, monocytes collected from a donor are cultured for 5 days either a) without stimulation (so as to evaluate their spontaneous proliferation level) or b) in the presence of human recombinant interleukin-3 (hr IL-3) or c) in the presence of both hr IL-3 and hr GM-CSF human recombinant granulocyte-macrophage colony stimulating factor. These two treatments make it possible to obtain a high level of proliferation. The compounds of the invention are added to the culture medium a day before the addition of tritiated thymidine (^3H-thymidine). The dividing cells incorporate this thymidine. The cells (which have differentiated into macrophages during the duration of the culture) are recovered and washed, and the proliferation level is evaluated by measuring, in a beta counter, the quantity of ^3H incorporated according to conventional methods as described in Blood, Vol. 76, pages 1490-1493, 1990.

[3] = Clinical trials: tolerance in healthy volunteers and cancer subjects; type: in vivo, man
[4] = tested on: HIV (HTLV III Ba-L); test: HIV replication in primary cultures of human monocytes (viral protein P24 in supernatants, day 7); type: cell-based
Experimental: Some cultures were treated with different concentrations of the compounds either 1 day before, or the same day, or 1 day after inoculation with HIV. The replication of the virus was evaluated on day 7 by measurement of the quantity of viral protein P24 in the supernatants as described in Blood, Vol. 76, page 1490-1493, 1990.

[5] = tested on: HIV; conditions: in vitro, 1000 μg/ml; cited from earlier work
[6] = tested on: guinea pig macrophages; conditions: cited from earlier work

Compound | inhibition of proliferation of macrophages stimulated with the combination IL-3/GM-CSF [2] | inhibition of proliferation of macrophages stimulated with IL-3 [2] | inhibition of spontaneous proliferation ([2]; 10 μg/ml) | side effects in man [3] | tolerance in man [3] | other results
CCCCCCCCCCCCCCCC(=O)OC[C@H](COP(=O)(O)OCCNC(=O)[C@H](C)NC(=O)CC[C@@H](NC(=O)[C@H](C)NC(=O)[C@@H](C)O[C@@H]([C@H](O)[C@H](O)CO)[C@H](C=O)NC(C)=O)C(N)=O)OC(=O)CCCCCCCCCCCCCCC [MTP-PE] | – | – | – | – | – | activity on viral replication ([1]; compound added a day before or 4 days after): minimal; total suppression of viral replication ([1]; free form or incorporated into liposomes): not capable; reduction in viral replication ([1]; free form, added repeatedly before and after HIV infection): only a partial reduction in viral replication
CCCCOC(=O)[C@@H](CCC(N)=O)NC(=O)[C@H](C)NC(=O)[C@@H](C)O[C@H]1[C@H](O)[C@@H](CO)OC(O)[C@@H]1NC(C)=O (stereo partly drawn) [Murabutide, Nac-Mur-L-Ala-DGln OnC4H9] | inhibiting the proliferation | inhibiting the proliferation | inhibition of spontaneous proliferation was observed | free of side effects | very good tolerance | inhibition of viral replication ([4]; 10 to 50 μg/ml, treatment on day -1, day 0 or day +1 relative to infection, P24 on day 7): completely inhibits viral replication
COC(=O)[C@@H](CCC(N)=O)NC(=O)[C@H](C)NC(=O)[C@@H](C)O[C@H]1[C@H](O)[C@@H](CO)OC(O)[C@@H]1NC(C)=O (stereo partly drawn) [Murametide, Nac-Mur-L-Ala-DGln OMe] | inhibiting the proliferation | inhibiting the proliferation | inhibition of spontaneous proliferation was observed | free of side effects | very good tolerance | inhibition of spontaneous proliferation ([2]; 50 μg/ml): inhibition of spontaneous proliferation was observed; suppression of viral replication ([4]; 50 μg/ml, regardless of the time of treatment): 100%; suppression of viral replication ([4]; different concentrations, treatment 1 day before, same day or 1 day after inoculation): highly significant suppression of viral replication
N-acetyl-muramyl-L-alanyl-D-Isoglutamine [MDP] | – | – | – | – | – | inhibition of the replication of HIV [5]: partially inhibiting the replication of HIV; inhibition of the proliferation of guinea pig macrophages [6]: capable of inhibiting the proliferation
